Reference: publication PMC6522912, “Evaluation of the published kinase inhibitor set to identify multiple inhibitors of bacterial ATP-dependent mur ligases” (Journal of Enzyme Inhibition and Medicinal Chemistry, 2019)
Read-outs that look alike come from different tables or passages of the source.

Columns and labels:
E. coli MurC = E. coli MurC (Escherichia coli, UniProt P17952); experiment: Malachite green inhibition assay, MurC; assay type: biochemical; details: for remaining activity at 100 µM: 0.25 h; for RA (%) MurC: Table S3, aza stilbene compounds
E. coli MurD = E. coli MurD (Escherichia coli, UniProt P14900); experiment: biochemical; details: for remaining activity at 100 µM: 0.25 h, Table S1, PKIS screening, read-out: RA [%] at 100 µM MurD
Procedure, shortened: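 Reaction 15 min at 37 °C, then phosphate detected with Biomol green at 650 nm. Values are residual activity versus 5% DMSO carrier controls.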

E. coli MurF = E. coli MurF (Escherichia coli, UniProt P11880); experiment: biochemical; details: for remaining activity at 100 µM: 0.25 h, read-out: RA [%] at 100 µM MurF; for RA (%) MurF: Table S3, aza stilbene compounds
[1] = Table S1, PKIS screening, read-out: RA [%] at 100 µM MurC
[2] = read-out: RA [%] at 100 µM MurC, Table S1, PKIS screening

Chain of E. coli MurC (P17952 whole entry): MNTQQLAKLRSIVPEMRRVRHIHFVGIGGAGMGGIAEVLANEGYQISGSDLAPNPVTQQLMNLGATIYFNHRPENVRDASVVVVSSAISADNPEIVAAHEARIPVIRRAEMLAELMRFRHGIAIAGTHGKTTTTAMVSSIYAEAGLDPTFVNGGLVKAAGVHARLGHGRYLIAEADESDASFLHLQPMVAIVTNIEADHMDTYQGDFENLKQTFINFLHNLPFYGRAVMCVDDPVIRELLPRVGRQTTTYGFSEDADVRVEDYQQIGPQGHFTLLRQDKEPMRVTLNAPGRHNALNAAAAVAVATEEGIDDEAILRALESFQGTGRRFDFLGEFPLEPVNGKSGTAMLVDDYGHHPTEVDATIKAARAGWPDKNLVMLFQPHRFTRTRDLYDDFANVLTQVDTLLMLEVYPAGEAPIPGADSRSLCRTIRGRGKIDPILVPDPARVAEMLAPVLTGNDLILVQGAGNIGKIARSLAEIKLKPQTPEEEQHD
Chain of E. coli MurD (P14900 whole entry): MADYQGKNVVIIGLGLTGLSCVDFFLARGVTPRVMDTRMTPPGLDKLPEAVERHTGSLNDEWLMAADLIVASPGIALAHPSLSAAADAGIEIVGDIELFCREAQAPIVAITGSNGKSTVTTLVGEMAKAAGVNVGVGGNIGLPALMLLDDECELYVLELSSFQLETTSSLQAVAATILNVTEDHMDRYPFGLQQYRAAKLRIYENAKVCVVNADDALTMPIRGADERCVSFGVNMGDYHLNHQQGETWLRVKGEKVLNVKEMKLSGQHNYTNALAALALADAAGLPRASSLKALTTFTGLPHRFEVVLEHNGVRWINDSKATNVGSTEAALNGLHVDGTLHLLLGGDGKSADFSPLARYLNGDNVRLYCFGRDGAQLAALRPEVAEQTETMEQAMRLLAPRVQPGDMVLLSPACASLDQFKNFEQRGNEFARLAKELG
Chain of E. coli MurF (P11880 whole entry): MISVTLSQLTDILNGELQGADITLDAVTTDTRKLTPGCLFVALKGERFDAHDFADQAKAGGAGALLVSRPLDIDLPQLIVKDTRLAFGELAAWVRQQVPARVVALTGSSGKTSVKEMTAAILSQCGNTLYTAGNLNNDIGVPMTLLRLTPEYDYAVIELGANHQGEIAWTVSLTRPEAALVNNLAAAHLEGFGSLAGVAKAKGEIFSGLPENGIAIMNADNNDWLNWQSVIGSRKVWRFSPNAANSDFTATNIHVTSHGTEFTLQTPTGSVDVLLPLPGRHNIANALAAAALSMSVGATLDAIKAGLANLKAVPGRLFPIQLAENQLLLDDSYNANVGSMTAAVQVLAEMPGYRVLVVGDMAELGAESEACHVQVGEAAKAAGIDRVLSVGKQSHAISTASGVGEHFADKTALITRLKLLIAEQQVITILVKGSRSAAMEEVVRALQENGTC

SMILES	remaining activity at 100 µM (E. coli MurC; [1]) [%]	remaining activity at 100 µM (E. coli MurD) [%]	remaining activity at 100 µM (E. coli MurF; Table S1, PKIS screening) [%]	further results
COc1cccc(/C=N/Nc2ncnc3c2cnn3-c2cccc(OC)c2)c1 [GW829874X]	69	78	85	–
CN(C)CCOc1ccc(-c2nc(-c3ccncc3)c(-c3ccc4c(c3)CC/C4=N\O)[nH]2)cc1 [SB-590885-AAD]	–	–	–	RA [%] at 100 µM MurC (E. coli MurC; Table S1, PKIS screening): 74%; RA [%] at 100 µM MurD (E. coli MurD): 100; RA [%] at 100 µM MurF (E. coli MurF; Table S1, PKIS screening): 100%
CCNC(=O)O[C@H]1CN[C@H](C#Cc2cc3ncnc(Nc4ccc(OCc5cccc(F)c5)c(Cl)c4)c3s2)C1 [GSK192082A]	39	70	50	–
Nc1nccc(-c2c(-c3ccc(F)cc3)nn3cc(C(F)(F)F)ccc23)n1 [GW568326X]	68	90	78	–
COc1ccc2ncnc(Nc3ccc(OCc4ccccc4)cc3)c2c1 [GI261520A]	58	31	81	–
CCS(=O)(=O)c1ccc(OC)c(Nc2ncc(-c3cccc(C(C)=O)c3)o2)c1 [GW621431X]	68	93	73	–
CC1=C(C(=O)Nc2ccc3[nH]ncc3c2)C(c2ccc(F)cc2)NC(=O)N1 (stereo not drawn) [GSK180736A]	80	79	85	–
CNC(=O)Oc1cc(C)c(C=Cc2cncc(C(=O)NC)c2)c(C)c1 [Compound 13]	–	–	–	RA (%) MurC (E. coli MurC): 68%; RA (%) MurD (E. coli MurD): 69%; RA (%) MurF (E. coli MurF): 87%
CCN(CC)S(=O)(=O)c1ccc(OC)c(Nc2ncc(-c3ccccc3)o2)c1 [GW572401X]	63	60	82	–
O=C1Nc2ccccc2/C1=C/Nc1ccc2[nH]c(=O)[nH]c2c1 [GW284408X]	105	86	86	–
CS(=O)(=O)Nc1ccc(-c2ccc3c(NC(=O)C4CC4)n[nH]c3c2)cc1 [SB-742865]	63	80	92	–
CCc1cccc(CC)c1C=Cc1cncc(C(=O)NC)c1 [Compound 12]	–	–	–	RA (%) MurC (E. coli MurC): 67%; RA (%) MurD (E. coli MurD): 74%; RA (%) MurF (E. coli MurF): 76%
CN(C)CCNC(=O)Nc1ccc(N(C)c2ccnc(Nc3ccc(CS(C)(=O)=O)cc3)n2)cc1 [GW830900A]	74	91	75	–
NS(=O)(=O)c1ccc(NN=C2C(=O)Nc3cccc(CCc4ccncc4)c32)cc1 [GW352430A]	64	90	37	–
O=C(Nc1n[nH]c2nc(-c3ccco3)ccc12)C1CC1 [SB-743899]	84	89	91	–
COc1ccc(-c2nn3ncccc3c2-c2ccnc(Nc3ccc4c(c3)OCCO4)n2)cc1 [GW827106X]	–	32	49	remaining activity at 100 µM (E. coli MurC; [2]): 13%
CC1=C(C(=O)Nc2ccc3[nH]ncc3c2)C(c2ccc(Cl)c(Cl)c2)CC(=O)N1 (stereo not drawn) [GSK299115A]	78	96	68	–
c1ccc(-c2n[nH]cc2-c2ccnc(-c3ccc(OCCn4ccnc4)cc3)c2)nc1 [GW711782X]	100	74	93	–
NC(=O)c1ccc(Oc2nccc(-c3c(-c4ccc(F)cc4)ncn3C3CCNCC3)n2)cc1 [SB-242718]	39	65	69	–
CS(=O)(=O)CCN(CC#N)Cc1ccc(-c2ccc3ncnc(Nc4ccc(OCc5cccc(F)c5)c(Cl)c4)c3c2)o1 [GW616030X]	76	59	80	–
NC(=O)Cc1ccccc1Oc1nccc(-c2c(-c3ccc(F)cc3)ncn2C2CCNCC2)n1 [SB-264865]	66	82	98	–
CCn1c(-c2nonc2N)nc2ccncc21 [SB-738561]	78	58	100	–
COc1cccc(-n2ncc3c(N/N=C/c4ccc(S(C)(=O)=O)cc4)ncnc32)c1 [GW811168X]	57	87	35	–
CS(=O)(=O)CCNCc1ccc(-c2ccc3ncnc(Nc4ccc(OCc5ccccc5)c(Cl)c4)c3c2)o1 [GW574783B]	58	37	79	–
COc1ccc(Nc2ncc(-c3ccccc3)o2)cc1OC [GW575533A]	79	93	71	–

SMILES	remaining activity at 100 µM (E. coli MurC; [1]) [%]	remaining activity at 100 µM (E. coli MurD) [%]	remaining activity at 100 µM (E. coli MurF; Table S1, PKIS screening) [%]	further results
COc1cc(C=NNc2ncnc3c2cnn3-c2ccccc2)ccc1O [GW513184X]	89	86	78	–
NS(=O)(=O)c1ccc(Nc2ncc(-c3ccccc3)o2)cc1 [GW572399X]	80	100	74	–
O=C1NC(=O)C(N2CCc3ccccc32)=C1c1ccc(Cl)cc1 [SB-333612]	100	96	100	–
COc1ccc(COc2ccc(Cc3cnc(N)nc3N)cc2OC)cc1 [GW632580X]	88	89	99	–
CCc1nccc2c1nc(-c1nonc1N)n2CC [SB-751148]	75	96	88	–
CCS(=O)(=O)c1ccc(OC)c(Nc2ncc(-c3cccc(F)c3)o2)c1 [GW621970X]	76	55	89	–
COc1cc(C)c(N(C)C(=O)CN(C)C)cc1Nc1nc(Nc2cccc(F)c2C(N)=O)c2cc[nH]c2n1 [GSK2219385A]	–	93	93	remaining activity at 100 µM (E. coli MurC; [2]): 73%
N#Cc1c(NC(=O)c2ccc(F)cc2)sc2c1CCCC2 [SB-347804]	87	78	100	–
O=C1Nc2ccc(C(=O)c3ccco3)cc2C1=Cc1cc(Cl)c(O)c(Cl)c1 [GW406108X]	74	85	79	–
CCc1cccc(CC)c1/C=C/c1cncc(C(=O)NC)c1 [GW450241X]	67	74	76	–
NS(=O)(=O)c1cccc(-c2ccc3c(NC(=O)C4CC4)n[nH]c3c2)c1 [SB-741905]	72	98	88	–
COc1cc2c(cc1Nc1nc(Nc3cccc(F)c3C(N)=O)c3cc[nH]c3n1)N(C(=O)CN1CCN(C(C)C)CC1)CC2 [GSK1751853A]	55	74	89	–
CN(C)C(=O)O[C@H]1CN[C@H](C#Cc2cc3ncnc(Nc4ccc(OCc5cccc(F)c5)c(Cl)c4)c3s2)C1 [GSK182497A]	43	65	76	–
Fc1ccc(-c2nn3ccccc3c2-c2ccncc2)cc1 [GW434756X]	74	68	94	–
COc1cccc(COc2cc(-n3cnc4ccccc43)sc2C(N)=O)c1 [GW804482X]	100	79	82	–
CC1(C)CC(n2cnc(-c3ccc(F)cc3)c2-c2ccnc(N)n2)CC(C)(C)N1 [SB-221466]	91	93	100	–
Nc1nc(-c2cccc(Cl)c2)c(-c2ccc3ncccc3n2)s1 [GW780159X]	56	90	83	–
CS(=O)(=O)CCNCc1ccc(-c2ccc3ncnc(Nc4ccc(OCc5ccccc5)cc4)c3c2)o1 [GW458787A]	68	58	66	–
COc1cc(Nc2ncc(-c3ccccc3)o2)cc(OC)c1 [GW631581B]	64	79	97	–
C/C(Nc1ccc(S(N)(=O)=O)cc1)=C1/C(=O)Nc2ccccc21 [GW335962X]	72	76	88	–
N#Cc1ccc2c(-c3ccnc(NC4CC4)n3)c(-c3ccc(F)cc3)nn2c1 [GW561436X]	87	76	77	–
COC(=O)Nc1nc2ccc(Oc3ccc(NC(=O)Nc4ccccc4)cc3)cc2[nH]1 [GW694590A]	62	99	75	–
COc1c(C(N)=O)cc(-c2ccc(Cl)cc2)cc1-c1ccc(S(N)(=O)=O)cc1 [GSK711701A]	100	99	93	–
c1ccc(-c2n[nH]cc2-c2ccnc(-c3ccc(OCCN4CCOCC4)cc3)c2)nc1 [GW695874X]	79	80	91	–
